{"source": "patent US20230091810A1", "about": "“FIRST-IN-CLASS OF SHMT2 AND MTHFD2 INHIBITORS AS ANTITUMOR AGENTS” (Duquesne University of the Holy Spirit, priority 2017, published 2023)", "key": {"PC43-10 (RFC) (CHO)": {"test_system": "PC43-10 (RFC) (CHO)", "assay": "proliferation assay, PC43-10 CHO cells expressing RFC only", "assay_type": "cell-based, Chinese hamster", "conditions": "folate-/glycine-free RPMI1640 with 25 nM leucovorin, 96 h, drug 0-1000 nM, read-out: IC50s (SE) PC43-10 (RFC) (CHO)", "description": "(§1) Proliferation assays were performed with engineered Chinese hamster ovary (CHO) cell lines R2 (transporter-null), PC43-10 (expresses RFC only), RT16 (FRα only), and R2/PCFT4 (PCFT only) cultured in folate-/glycine-free RPMI1640 supplemented with 25 nM leucovorin. Additional results are shown for HCT116 (colon tumor cells (CTC)), IGROV1 (epithelial ovarian cancer (EOC) cells), H460 (non-small cell lung cancer (NSCLC) cells), MIAPaCa-2 (pancreatic cancer (PaC) cells), and HPAC (PaC).\nCell culture and proliferation/protection assays. The HCT116 cell lines including the serine hydroxymethyltransferase (SHMT) 1, SHMT2, and methylene THF dehydrogenase 2 (MTHFD2) knockout (KO) cells were previously described (47,53). The H460 cell line was obtained from the American Type Culture Collection (Manassas, VA), whereas the MIA PaCa-2 cells were provided by Dr. Yubin Ge (Karmanos Cancer Institute). Cell lines were verified by STR analysis by Genetica DNA Laboratories (Burlington, NC). MTXRIIOua^R2-4 (i.e. R2) Chinese hamster ovary (CHO) cells were generously provided by Dr. Wayne Flintoff (University of Western Ontario) (54). From this parental R2 cell line, human RFC and PCFT were individually transfected to generate the isogenic CHO cell lines designated PC43-10 (RFC) and R2/PCFT4 (PCFT) (55-57). Human tumor cell lines were cultured in folate-free RPMI supplemented with 10% dialyzed fetal bovine serum (Sigma-Aldrich), 1% penicillin/streptomycin solution, 2 mM L-glutamine, and 25 nM leucovorin in a humidified atmosphere at 37° C. in the presence of 5% CO2 and 95% air. The CHO cell lines were cultured in alpha-minimal essential medium (alpha-MEM) supplemented with 10% bovine calf serum, 1% penicillin/streptomycin solution, and 2 mM L-glutamine. Additionally, the transfected CHO cell lines (i.e. R2/PCFT4 and PC43-10) were maintained under continuous selection with 1 mg/ml of G418.\nFor proliferation assays with the CHO cell lines, the cells were treated with drugs (0-1 µM) in a 96-well plate (2000 cells/well) in glycine-free, nucleoside-free folate-free RPMI supplemented with 10% dialyzed fetal bovine serum, 1% penicillin/streptomycin, 2 mM L-glutamine, and 25 nM leucovorin (final volume 200 µL) over a 96 h incubation period at 37° C. with 5% CO2. […] To quantify viable cells, the media was removed and plates were washed once with 100 µL Dulbecco’s Phosphate-Buffered Saline (PBS), after which 100 µL PBS and 20 µL Cell Titer-blue (Promega) were added. Relative cell numbers were proportional to the fluorescence measured with a fluorescence plate reader (590 nm emission, 560 nm excitation). Background fluorescence (cell-free wells treated with Cell Titer-blue) was subtracted and these corrected values were normalized to results for cells treated in an identical manner without drugs."}, "IGROV1 (EOC)": {"test_system": "IGROV1 (EOC)", "assay": "proliferation assay, IGROV1 epithelial ovarian cancer cells", "assay_type": "cell-based, human", "conditions": "folate-/glycine-free RPMI1640 with 25 nM leucovorin, read-out: IC50s (SE) IGROV1 (EOC)", "description": "as §1\n(§2) For proliferation assays of the HCT116, H460, and MIA PaCa2 tumor cell lines, the cells were plated in 96-well plates in an identical manner to the CHO experiments, except that the maximal drug concentration was increased to 10 µM. Glycine/nucleoside protection experiments in CHO and tumor cell lines were performed in folate- and glycine-free RPMI 1640/10% dialyzed fetal bovine serum supplemented with 25 nM leucovorin without additions, or in the presence of adenosine (60 µM), thymidine (10 µM), glycine (130 µM) and/or 5-aminoimidazole-4-carboxamide (AICA) (320 µM). Growth of metabolite-treated cells was normalized to controls treated with metabolites and vehicle (i.e., DMSO) both singly and in combination. Treatments with all metabolites were performed in parallel on the same plate for a given drug."}, "HPAC (PaC)": {"test_system": "HPAC (PaC)", "assay": "proliferation assay, HPAC pancreatic cancer cells", "assay_type": "cell-based, human", "conditions": "folate-/glycine-free RPMI1640 with 25 nM leucovorin, read-out: IC50s (SE) HPAC (PaC)", "description": "as §1, §2"}, "H460 cells": {"test_system": "H460 cells", "assay": "targeted metabolomics with [2,3,3-2H]serine tracer, H460 cells", "assay_type": "cell-based, human", "conditions": "10 µM drug", "excerpt": "Identification of the mitochondrial enzyme target for AGF291, AGF320, and AGF347 by targeted metabolomics. […] The cells were processed for LC-MS analyses of total serine, and of M+3, M+2, M+1, and M+0 (unlabeled) serine (where M+n represents species with n deuterium atoms). The results with the drug-treated cells were compared to those for untreated cells. For WT HCT116 cells, the results were compared to those for SHMT2 KO, MTHFD2 KO, and SHMT1 KO cells (KO of SHMT2, MTHFD2, and SHMT1, respectively (20)). For H460 cells, controls included non-targeted control (NTC) and SHMT2 shRNA knockdown (KD) cells.\nTargeted Metabolomics. Targeted metabolomics were performed essentially as previously described (47, 53). Briefly, cells (H460, HCT116, MIA PaCa-2) (1 million cells /dish for vehicle-treated samples, 1.5 million cells/dish for drug-treated samples) were seeded in triplicate 60 mm dishes in 5 ml of folate-free RPMI (contains glycine and unlabeled serine) supplemented with 10% dialyzed fetal bovine serum, 1% penicillin/streptomycin, 2 mM L-glutamine, and 25 nM leucovorin. Cells were allowed to adhere for 24 h. […] After 16 h, the cells were washed with PBS (3×), the media was replaced with folate- and serine-free culture media (containing glycine) supplemented with 10% dialyzed fetal bovine serine, 25 nM leucovorin, and [2,3,3-^2H]serine (250 µM), including 10 µM drug or DMSO vehicle. The cells were incubated for 24 h. All incubations were at 37° C. with 5% CO2. The media was aspirated, and cells were washed (3×) rapidly (< 30 s) with 5 mL ice-cold PBS; metabolism was quickly quenched with methanol:water (80:20) at -80° C. Cells were allowed to rock on dry ice for 10 min to cover the entire dish with 80:20 methanol:water (at -80° C.), then harvested by scraping and pipetting into 1.5 mL Eppendorf tubes. […] The supernatants were collected and analyzed by reversed-phase ion-pairing chromatography coupled with negative-mode electrospray-ionization high-resolution mass spectrometry on a stand-alone Orbitrap (ThermoFisher Exactive). […]"}}, "note": "Read-outs that look alike come from different tables or passages of the source."}
{"compound": "Nc1nc2ccn(CCCc3ccc(C(=O)N[C@@H](CCC(=O)O)C(=O)O)cc3)c2c(=O)[nH]1", "note": "[AGF291]", "values": [{"measurement": "IC50", "setting": "PC43-10 (RFC) (CHO); Cricetulus griseus, PC43-10", "result": 454, "unit": "nM"}, {"measurement": "IC50", "setting": "IGROV1 (EOC); Homo sapiens, IGROV-1", "result": 443, "unit": "nM"}, {"measurement": "IC50", "setting": "HPAC (PaC); Homo sapiens, HPAC", "result": 301, "unit": "nM"}, {"measurement": "dTTP isotope distribution from [2,3,3-2H]serine", "setting": "H460 cells", "result": "M+1 dTTP without M+2 dTTP"}]}
{"compound": "Nc1nc2ccn(CCCCCc3ccc(C(=O)N[C@@H](CCC(=O)O)C(=O)O)s3)c2c(=O)[nH]1", "note": "[AGF320]", "values": [{"measurement": "IC50", "setting": "PC43-10 (RFC) (CHO)", "result": "> 1000", "unit": "nM"}, {"measurement": "IC50", "setting": "IGROV1 (EOC)", "result": 401, "unit": "nM"}, {"measurement": "IC50", "setting": "HPAC (PaC)", "result": 190, "unit": "nM"}, {"measurement": "dTTP isotope distribution from [2,3,3-2H]serine", "setting": "H460 cells", "result": "M+1 dTTP without M+2 dTTP"}]}
{"compound": "(2-amino-4-oxo-3,4-dihydro-5H-pyrrolo[3,2-d]pyrimidin-5-yl)butyl)-2-fluorobenzoyl)-L-glutamic acid [AGF347]", "values": [{"measurement": "IC50", "setting": "PC43-10 (RFC) (CHO)", "result": 224, "unit": "nM"}, {"measurement": "IC50", "setting": "IGROV1 (EOC)", "result": 62, "unit": "nM"}, {"measurement": "IC50", "setting": "HPAC (PaC)", "result": 764, "unit": "nM"}, {"measurement": "dTTP isotope distribution from [2,3,3-2H]serine", "setting": "H460 cells", "result": "M+1 dTTP without M+2 dTTP"}]}
